In patent publication US20240148736A1, “COMBINATION DRUG FOR TREATING RENAL CANCER AND POTENTIATOR FOR THERAPEUTIC EFFECTS OF TYROSINE KINASE INHIBITOR” (Saitama Medical University, priority 2020, published 2024):

How the values were obtained:
[1] = tested on: ACHN-R xenograft tumor; test: Xenograft tumor model in nude mice; assay type: in vivo
Description: Male nude mice (BALB/c-nu/nu, 6 weeks old) were acquired from CLAIR Japan, Inc. The ACHN cells and the ACHN−R cells were each subjected to trypsinization, followed by washing with PBS. Then, 5×10^6 cells of the ACHN cells or the ACHN−R cells were dispersed in 150 μL of Matrigel (BD Biosciences), and were subcutaneously inoculated in each mouse. The size of the tumor was measured every day. The tumor volume (V) was determined by measuring the length (L) and the width (W), and inserting the measured values in the following equation.
When the volume of the engrafted tumor reached 180 mm^3, SUN (20 mg/kg) was orally administered to the mice inoculated with the ACHN cells, and SUN (20 mg/kg) alone or two drugs, SUN (20 mg/kg) and DPP4 inhibitor sitagliptin (SITA) (30 mg/kg), were orally administered to the randomly selected mice inoculated with the ACHN-R cells. […] The drug was administered in a cycle consisting of 2 consecutive days of administration, followed by 1 day of washout.
At the point when the volume of the ACHN or ACHN−R xenograft nude mouse tumor reached 180 mm^3, oral administration of SUN alone, or a combination of SUN and SITA was started.
The data was presented as the mean SD, and n=6. […] The tumor volume was estimated by measuring the size of the tumor with Vernier calipers. […] In FIGS. 6a and 6b, moreover, “k” represents P<0.05.
Ki67 immunohistochemical staining of the excised tumor of each group was carried out to determine a ratio of Ki67 positive cells (Ki67 index). […] The scale bar is 50 μm. […] In FIG. 6g, moreover, “*” represents P<0.05.
The expression level was evaluated by qRT-PCR. […] In FIGS. 6h to 6l, moreover, “*” represents P<0.05.

[2] = tested on: IL6 mRNA; test: IL6 mRNA level in 3D culture of ACHN-R cells (qRT-PCR); assay type: cell-based, human; conditions: SITA treatment versus vehicle, ACHN-R cells 3D culture
Description: (§1) Extraction of RNA, synthesis of cDNA, and quantitative reverse-transcription polymerase chain reaction (qRT-PCR) were carried out according to the methods disclosed in “[…], et al. ALDH1A1 in patient-derived bladder cancer spheroids activates retinoic acid signaling leading to TUBB3 overexpression and tumor progression. Int. J. Cancer 146, 1099-1113 (2019).” FIGS. 4k to 4l depict the results studying how SITA treatment affects the IL6 mRNA level in the 3D cultures of the ACHN-R cells (FIGS. 4k) and 769-P-R cells (FIG. 4l), which are both SUN resistant cells. […] In FIGS. 4k to 4l, moreover, “*” represents P<0.05.

[3] = tested on: RCC-B spheroids; test: Cell survival rate assay on spheroid culture (CellTiter-Glo 3D); assay type: cell-based, human; conditions: SITA (100 μM) in combination with SUN, third day
Excerpt: (§2) After attaining the informed consent from the patients at Saitama Medical Center, Saitama Medical University, patient-derived cells (PDC) were produced from the tumors excised from the RCC patients. The tumor samples were processed with reference to the literature (Namekawa, T, et al. ALDH1A1 in patient-derived bladder cancer spheroids activates retinoic acid signaling leading to TUBB3 overexpression and tumor progression. Int. J. Cancer 146, 1099-1113 (2019)). The protocol of the research was approved by the Ethics Committee of Saitama Medical Center, Saitama Medical University (No. 1363-IV).
(§3) A cell survival rate of the cells 3 days after the drug treatment and siRNA transfection was evaluated by CellTiter-Glo 3D Assay (Promega K.K.).
(§4) FIGS. 2b to 2c depict the results of treating the RCC-A spheroids and the RCC-B spheroids with SITA (100 μM) and SUN. The data was presented as the mean value ±SD of the relative luciferase activity as analyzed by an ATP-based luciferase assay. […] In FIGS. 2b to 2c, moreover, “*” represents P<0.05.
(§5) The production of the spheroid ATP in the RCC-A cells or RCC-B cells treated with SUN alone or a combination of SUN and SITA on the third day was measured with the luciferase activity using the CEllTiter-Glo. […]

[4] = tested on: RCC-A spheroids; test: as above; assay type: cell-based, human; conditions: SITA (100 μM) in combination with SUN, third day
Excerpt: as §2, §3, §4, §5

[5] = tested on: ACHN cells; test: 3D spheroid proliferation / cell survival rate assay; assay type: cell-based, human; conditions: SITA alone, dose-response
Description: (§6) ACHN and 769-P, which were human RCC cell lines, were acquired from the American Type Culture Collection (ATCC), and those authenticated by short tandem repeat (STR) analysis performed by BEX CO., LTD. were used. The ACHN and 769-P cells were cultured on a DEME medium and a PRMI medium (NACALI TESQUE, INC.), respectively, to both of which 10% of FBS, 100 U/mL of penicillin, and 100 μg/mL of streptomycin were added, using an incubator set at 37° C. and 5% CO2. The ACHN and 769-P cells were exposed to sunitinib (SUN) at 10 μM max., for 6 months or longer, to produce SUN resistant RCC cell lines, ACHN-R and 769-P-R, respectively.
as §3
(§7) FIG. 4a depicts the results of ACHN-R and the parent cell line thereof. FIG. 4b depicts the results of 769-P-R and the parent cell line thereof. […] In FIGS. 4a to 4b, moreover, “ns” represents “no significant difference.”
(§8) FIGS. 4m to 4n are diagrams depicting the results studying how the DPP4 overexpression affects the cell survival rate of the RCC spheroids treated with SUN. ACHN cells (FIG. 4m) and 769-P cells (FIG. 4n), each stably expressing a control vector (vector #1 or #2) or DPP4 (DPP4 #1 or #2) were treated with SUN, and were analyzed by an ATP-based luciferase assay. […]

[6] = tested on: 769-P cells; test: as above; assay type: cell-based, human; conditions: SITA alone, dose-response
Description: as §6, §3, §7, §8

[7] = tested on: 769-P-R cells; test: as above; assay type: cell-based, human
Description: as §6, §3, §7
(§9) FIGS. 4c to 4f are diagrams depicting the results of studying the effect of the combination of SITA and SUN in the 3D culture of the ACHN cells (FIG. 4c), ACHN-R cells (FIG. 4d), 769-P cells (FIG. 4e), or 769-P-R cells (FIG. 4f). The concentration of SITA used was 100 μM. […] In FIGS. 4c, 4d, and 4f, moreover, […] represents P<0.05.
(§10) FIGS. 4g to 4j are diagrams depicting the results studying how the DPP4 knockdown by siRNA affects the therapeutic effects of SUN in the 3D culture of the ACHN cells (FIG. 4g), ACHN−R cells (FIG. 4h), 769-P cells (FIG. 4i), or 769-P-R cells (FIG. 4j). The data was represented as the means value±SD of the relative luciferase activity of each group of the spheroids, and n=3. […] In FIGS. 4h to 4j, moreover, “*” represents P<0.05.

[8] = tested on: ACHN-R cells; test: as above; assay type: cell-based, human
Description: as §6, §3, §7, §9, §10

[9] = tested on: IL6 mRNA; test: IL6 mRNA level in 3D culture of 769-P-R cells (qRT-PCR); assay type: cell-based, human; conditions: SITA treatment versus vehicle, 769-P-R cells 3D culture
Description: as §1

[10] = combination of SUN and SITA (100 μM)

N[C@@H](CC(=O)N1CCn2c(nnc2C(F)(F)F)C1)Cc1cc(F)c(F)cc1F [SITA, sitagliptin]
Ki67 index (ratio of Ki67 positive cells) ([1]; SITA and SUN in combination, ACHN-R xenograft tumor): reduced the Ki67 index
sunitinib resistance of the RCC xenograft tumor ([1]; SITA in combination with SUN): contributed to overturn the sunitinib resistance
expression of IL6 (mRNA level) in tumor ([1]; SITA in combination with SUN, ACHN-R xenograft tumor): expression of IL6 decreased
proliferation of the tumor (tumor volume, tumor weight) ([1]; SUN (20 mg/kg) and SITA (30 mg/kg) orally in combination, ACHN-R xenograft, 13th day): proliferation of the tumor was suppressed to the similar degree to the ACHN xenograft tumor
IL6 mRNA level [2]: reduced the expression of mRNA of IL6
proliferation inhibition effect owing to SUN (cell survival rate, relative luciferase activity) [3]: proliferation inhibition effect owing to SUN was enhanced
proliferation inhibition effect owing to SUN (cell survival rate, relative luciferase activity) [4]: proliferation inhibition effect owing to SUN was enhanced
spheroid proliferation [5]: did not affect the spheroid proliferation
spheroid proliferation [6]: did not affect the spheroid proliferation
spheroid proliferation ([7]; SITA alone, dose-response): did not affect the spheroid proliferation
spheroid proliferation [7, 10]: suppressed the spheroid proliferation
spheroid proliferation ([8]; SITA alone, dose-response): did not affect the spheroid proliferation
spheroid proliferation [8, 10]: suppressed the spheroid proliferation
IL6 mRNA level [9]: reduced the expression of mRNA of IL6
